Values quoted from earlier work in patent US20200315976A1, “Encapsulation Methods and Compositions” (Prodo Laboratories, Inc., priority 2017, published 2020).

Tested on: islets

SMILES: CCOC(=O)c1ccccc1-c1c2cc(Br)c(=O)c(Br)c-2oc2c(Br)c([O-])c(Br)cc12.[K+] [Ethyl eosin, ethyl eosin]
- effect on islets during conformal encapsulation: islet death
